Two compounds from ChEMBL document CHEMBL1201862, “PubChem BioAssay data set” (2004) can be followed below.

The term EC50 denotes the concentration giving half of the maximal effect. As usually defined, the IC50 is the midpoint of a concentration-inhibition curve.

Molecules are shown by their SMILES. The source made the active and inactive calls. Cut-off read from the data, not from the text of the source, for most assays here: actives have a measured IC50 and inactives only a lower limit. Bounds are passed on as bounds.

Test [1] relates to HEK293. Briefly: optical interference in Abeta FP readout, dose response, artefact control for IDE activator project, biochemical, fluorescence polarization (AID 588442). The format is functional, cell-based. The following applies: Homo sapiens. (In fluorescence polarisation assays a small probe gives low polarisation when free and higher when bound to something large.)
Test [2] deals with T1, Insulin-degrading enzyme (Homo sapiens, UniProt P14735).
T1 sequence (P14735 whole entry): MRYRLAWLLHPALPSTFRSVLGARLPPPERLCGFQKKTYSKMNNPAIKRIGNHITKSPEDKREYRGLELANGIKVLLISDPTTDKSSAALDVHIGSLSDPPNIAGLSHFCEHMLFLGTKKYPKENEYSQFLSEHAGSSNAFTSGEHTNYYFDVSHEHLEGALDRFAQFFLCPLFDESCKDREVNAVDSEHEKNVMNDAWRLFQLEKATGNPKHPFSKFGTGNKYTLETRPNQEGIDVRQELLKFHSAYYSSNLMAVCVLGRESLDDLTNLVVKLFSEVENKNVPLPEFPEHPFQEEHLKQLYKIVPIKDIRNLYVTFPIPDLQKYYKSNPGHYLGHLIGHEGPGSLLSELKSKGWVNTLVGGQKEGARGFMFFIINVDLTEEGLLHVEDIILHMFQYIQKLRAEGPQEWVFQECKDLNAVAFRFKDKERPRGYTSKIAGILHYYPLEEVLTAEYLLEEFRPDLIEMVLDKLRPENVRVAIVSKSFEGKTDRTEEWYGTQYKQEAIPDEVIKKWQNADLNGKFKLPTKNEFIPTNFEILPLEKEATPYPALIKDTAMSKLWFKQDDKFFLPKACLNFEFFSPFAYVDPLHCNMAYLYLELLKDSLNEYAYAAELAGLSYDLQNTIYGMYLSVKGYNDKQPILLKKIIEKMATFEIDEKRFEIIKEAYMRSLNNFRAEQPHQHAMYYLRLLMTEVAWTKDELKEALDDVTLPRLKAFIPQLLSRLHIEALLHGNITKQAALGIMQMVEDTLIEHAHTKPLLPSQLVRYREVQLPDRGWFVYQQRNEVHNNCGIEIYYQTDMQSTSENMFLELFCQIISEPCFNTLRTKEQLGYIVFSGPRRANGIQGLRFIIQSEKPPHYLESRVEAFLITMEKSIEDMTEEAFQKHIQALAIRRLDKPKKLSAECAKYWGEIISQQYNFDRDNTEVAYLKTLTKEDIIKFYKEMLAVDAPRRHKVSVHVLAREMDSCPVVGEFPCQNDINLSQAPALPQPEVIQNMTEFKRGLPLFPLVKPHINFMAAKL
Briefly: cellular IDE activation of Abeta substrate cleavage – fluorescence polarization, HEK cells, dose response (AID 588439). The format is functional, cell-based.

For test [3], the target named is T1, Insulin-degrading enzyme. Briefly: recombinant IDE activation, cell-free – biochemical, fluorescence polarization, counter-screen for IDE activator project, dose response (AID 588681).
For test [4], the system named is HEK293. Briefly: membrane integrity loss in HEK cells – cell-based, fluorescence, cytotoxicity control for IDE activator project, dose response (AID 588440).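 Note: cytotoxicity by LDH release measuring loss of membrane integrity.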 The format is functional. The following applies: Homo sapiens.
Test [5] concerns the target T2, Sentrin-specific protease 8 (Homo sapiens, UniProt Q96LD8).
T2 sequence (Q96LD8 whole entry): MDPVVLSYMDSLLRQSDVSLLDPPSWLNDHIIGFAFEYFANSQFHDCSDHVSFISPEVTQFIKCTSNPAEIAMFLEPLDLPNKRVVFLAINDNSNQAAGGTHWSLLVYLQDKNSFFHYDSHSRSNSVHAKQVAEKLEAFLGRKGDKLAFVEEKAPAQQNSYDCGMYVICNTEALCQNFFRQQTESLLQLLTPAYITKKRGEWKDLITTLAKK
Kind of test: inhibition of human SENP8 cleavage activity – biochemical, luminescence, SAR follow-up (AID 504501). The format is functional.

The target of test [6] is T3, Caspase-3 (Homo sapiens, UniProt P42574).
T3 sequence (P42574 whole entry): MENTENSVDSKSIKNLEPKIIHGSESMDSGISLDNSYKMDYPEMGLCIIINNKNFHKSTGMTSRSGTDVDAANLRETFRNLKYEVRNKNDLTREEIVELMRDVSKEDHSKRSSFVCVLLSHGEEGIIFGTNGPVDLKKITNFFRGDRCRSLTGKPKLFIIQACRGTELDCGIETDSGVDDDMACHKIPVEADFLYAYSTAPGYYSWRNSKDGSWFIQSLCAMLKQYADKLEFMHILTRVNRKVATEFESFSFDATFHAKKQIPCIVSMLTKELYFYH
Briefly: SAR Analysis of small molecule inhibitors of Sentrin-specific proteases (SENPs) using a Caspase-3 Selectivity assay. [Related pubchem assays (depositor defined):AID2540, AID2599, AID434973, AID489001]. The format is functional.

In test [7] the target is T4, Sentrin-specific protease 6 (Homo sapiens, UniProt Q9GZR1).
T4 sequence (Q9GZR1 whole entry): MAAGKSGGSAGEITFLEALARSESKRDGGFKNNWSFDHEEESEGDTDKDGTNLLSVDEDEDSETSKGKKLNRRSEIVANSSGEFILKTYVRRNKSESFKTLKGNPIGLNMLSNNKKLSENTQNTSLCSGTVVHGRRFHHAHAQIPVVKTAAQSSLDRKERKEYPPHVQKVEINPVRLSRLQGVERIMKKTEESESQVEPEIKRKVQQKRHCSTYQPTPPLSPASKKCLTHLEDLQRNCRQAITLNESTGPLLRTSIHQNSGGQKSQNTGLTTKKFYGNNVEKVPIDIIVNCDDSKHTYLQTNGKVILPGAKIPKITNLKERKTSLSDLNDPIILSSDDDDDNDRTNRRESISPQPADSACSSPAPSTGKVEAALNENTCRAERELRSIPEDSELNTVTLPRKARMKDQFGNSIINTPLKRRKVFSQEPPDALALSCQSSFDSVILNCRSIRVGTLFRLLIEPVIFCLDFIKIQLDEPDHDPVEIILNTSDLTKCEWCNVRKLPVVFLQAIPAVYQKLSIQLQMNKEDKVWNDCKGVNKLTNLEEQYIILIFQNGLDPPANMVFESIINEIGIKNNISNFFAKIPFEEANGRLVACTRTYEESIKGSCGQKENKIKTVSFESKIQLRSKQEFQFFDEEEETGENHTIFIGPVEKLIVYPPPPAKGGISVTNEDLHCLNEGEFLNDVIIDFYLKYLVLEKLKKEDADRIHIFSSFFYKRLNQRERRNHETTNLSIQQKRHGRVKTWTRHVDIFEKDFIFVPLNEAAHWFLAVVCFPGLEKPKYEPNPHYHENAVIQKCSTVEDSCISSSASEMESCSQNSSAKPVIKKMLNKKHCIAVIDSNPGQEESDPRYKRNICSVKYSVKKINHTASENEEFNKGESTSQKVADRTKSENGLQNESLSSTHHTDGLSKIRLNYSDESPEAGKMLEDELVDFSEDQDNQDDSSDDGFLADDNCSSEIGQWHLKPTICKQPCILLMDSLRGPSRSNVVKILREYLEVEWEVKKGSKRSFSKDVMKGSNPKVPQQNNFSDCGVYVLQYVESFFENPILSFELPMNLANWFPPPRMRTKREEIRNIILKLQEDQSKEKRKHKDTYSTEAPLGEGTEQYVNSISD
Kind of test: inhibition of human SENP6 catalytic domain – biochemical, luminescence, set 2, SAR follow-up (AID 588598). The format is functional.

Test [8] concerns the target T2, Sentrin-specific protease 8. Kind of test: inhibition of sentrin protease 8 – biochemical, luminescence, set 2, SAR follow-up (AID 588601). The format is functional.
Test [9] deals with T5, Sentrin-specific protease 7 (Homo sapiens, UniProt Q9BQF6).
T5 sequence (Q9BQF6 whole entry): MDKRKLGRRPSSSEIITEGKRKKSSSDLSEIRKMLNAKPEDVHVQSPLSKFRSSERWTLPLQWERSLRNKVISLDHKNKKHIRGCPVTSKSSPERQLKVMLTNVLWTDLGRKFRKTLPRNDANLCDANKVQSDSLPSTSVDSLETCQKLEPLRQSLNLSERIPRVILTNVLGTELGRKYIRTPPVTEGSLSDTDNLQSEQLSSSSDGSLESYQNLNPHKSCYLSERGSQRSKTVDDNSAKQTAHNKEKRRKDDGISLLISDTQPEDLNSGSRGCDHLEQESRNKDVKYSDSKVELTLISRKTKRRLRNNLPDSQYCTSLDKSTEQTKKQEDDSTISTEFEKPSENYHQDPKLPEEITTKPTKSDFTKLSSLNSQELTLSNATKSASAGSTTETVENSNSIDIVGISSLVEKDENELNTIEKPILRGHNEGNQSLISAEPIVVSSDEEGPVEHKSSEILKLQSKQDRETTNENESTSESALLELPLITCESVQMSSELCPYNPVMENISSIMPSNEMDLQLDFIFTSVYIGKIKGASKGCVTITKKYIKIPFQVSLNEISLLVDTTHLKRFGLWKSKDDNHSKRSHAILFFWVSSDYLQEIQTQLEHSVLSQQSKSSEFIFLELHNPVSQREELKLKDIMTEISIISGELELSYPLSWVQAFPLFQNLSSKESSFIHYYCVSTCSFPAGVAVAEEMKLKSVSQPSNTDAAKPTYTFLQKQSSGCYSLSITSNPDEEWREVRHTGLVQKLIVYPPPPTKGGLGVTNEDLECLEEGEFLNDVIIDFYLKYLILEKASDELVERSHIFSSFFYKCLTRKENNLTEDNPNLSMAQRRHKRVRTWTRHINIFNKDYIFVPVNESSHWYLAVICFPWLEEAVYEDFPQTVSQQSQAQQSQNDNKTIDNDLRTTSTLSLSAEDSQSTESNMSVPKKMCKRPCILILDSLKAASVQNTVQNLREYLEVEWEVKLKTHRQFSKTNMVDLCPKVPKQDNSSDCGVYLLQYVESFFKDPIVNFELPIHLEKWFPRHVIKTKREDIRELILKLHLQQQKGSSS
Briefly: inhibition of human SENP7 cleavage activity – biochemical, luminescence, set 2, SAR follow-up (AID 588600). The format is functional.

The target of test [10] is T4, Sentrin-specific protease 6. Briefly: SAR Analysis of small molecule inhibitors of Sentrin-specific protease 6 (SENP6) using a Luminescent assay. [Related pubchem assays (depositor defined):AID2582, AID2599]. The format is functional.
The target of test [11] is T3, Caspase-3. Kind of test: inhibition of recombinant caspase-3 activity – biochemical, luminescence, set 2, selectivity assay for SENP protease inhibitor project, SAR follow-up (AID 588599). The format is functional.
The target in test [12] is T5, Sentrin-specific protease 7. Briefly: inhibition of human SENP7 cleavage activity – biochemical, luminescence, SAR follow-up (AID 504497). The format is functional.

As for `CC(C)CN1CCC(=O)N([C@H](CO)c2ccccc2)CC1`, the EC50 in test [1], in test [2] and in test [3] was > 54700 nM (inactive) each time. In addition, the IC50 in [4] is > 89300 nM (inactive).
As for `Oc1ccccc1-c1nc(/C=C/c2ccccc2Cl)no1`, the IC50 in [5] is 1200 nM (active); in test [6], 1200 nM (active); in test [7], 1350 nM (active); in test [8], 1290 nM (active); in test [9] it was 1360 nM (active); in test [10], 1200 nM (active). Besides, the results for the concentration for half-maximal inhibition (IC50) in [11] and in test [12] were 1440 nM (active) and 1000 nM (active), respectively.
